Assay results published in patent US5627177A, “Piperazine derivatives” (John Wyeth & Brother, Ltd., priority 1993, dated 1997).

How the values were obtained:
[1] = molecular target: T1, 5-HT1A receptor (Rattus norvegicus, UniProt P19327); test: 5-HT1A receptor antagonism: antagonism of 8-hydroxy-2-(di-n-propylamino)-tetralin (8-OH DPAT) syndrome in the rat; format: in vivo; set-up: syndrome in the rat; from tissue; host or cells: whole living rat (in vivo); conditions: sc, antagonism of 8-OH DPAT syndrome, read-out: median effective dose
T1 sequence (P19327 1-422): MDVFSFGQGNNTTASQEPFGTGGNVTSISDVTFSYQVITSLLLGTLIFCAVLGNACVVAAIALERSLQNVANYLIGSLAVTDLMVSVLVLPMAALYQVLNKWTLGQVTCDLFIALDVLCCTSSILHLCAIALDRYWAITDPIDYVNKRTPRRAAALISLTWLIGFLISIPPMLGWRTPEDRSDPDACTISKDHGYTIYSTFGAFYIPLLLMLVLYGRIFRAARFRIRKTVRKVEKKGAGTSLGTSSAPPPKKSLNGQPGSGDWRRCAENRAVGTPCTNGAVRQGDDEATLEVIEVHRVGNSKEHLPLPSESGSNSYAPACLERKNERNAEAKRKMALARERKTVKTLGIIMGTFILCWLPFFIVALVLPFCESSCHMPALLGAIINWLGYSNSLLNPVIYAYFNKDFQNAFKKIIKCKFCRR
Experimental: The compounds are also tested for 5-HT1A receptor antagonism activity in a test involving the antagonism of 8-hydroxy-2-(di-n-propylamino)-tetralin (8-OH DPAT) syndrome in the rat.

[2] = molecular target: T1, 5-HT1A receptor; test: 5-HT1A receptor binding activity in rat hippocampal membrane homogenate; set-up: from tissue
Experimental: The compounds of the invention are tested for 5-HT1A receptor binding activity in rat hippocampal membrane homogenate by the method of B. S. Alexander and M. D. Wood, J Pharm Pharmacol, 1988, 40, 888-891.

`COC(=O)c1cc2c(N3CCN(CCC(C(=O)N4CCCCCC4)c4ccccc4)CC3)cccc2[nH]1` (racemic) [Example 5, 4-[4-(4-Azepan-1-yl-4-oxo-3-phenylbutyl)piperazin-1-yl]-1H-indole-2-carboxylic acid methyl ester] showed an ED50 [1] of 0.3 mg/kg and an IC50 [2] of 720 pM.
